From patent US8822449B2, “Substituted aminoindanes and analogs thereof, and the pharmaceutical use thereof” (Sanofi, priority 2008, dated 2014)

Molecular target: T1, sodium-proton exchanger of subtype 3 (NHE3) (Homo sapiens, UniProt P48764)
T1 construct: expressed in transfected cells
T1 sequence (P48764 26-834): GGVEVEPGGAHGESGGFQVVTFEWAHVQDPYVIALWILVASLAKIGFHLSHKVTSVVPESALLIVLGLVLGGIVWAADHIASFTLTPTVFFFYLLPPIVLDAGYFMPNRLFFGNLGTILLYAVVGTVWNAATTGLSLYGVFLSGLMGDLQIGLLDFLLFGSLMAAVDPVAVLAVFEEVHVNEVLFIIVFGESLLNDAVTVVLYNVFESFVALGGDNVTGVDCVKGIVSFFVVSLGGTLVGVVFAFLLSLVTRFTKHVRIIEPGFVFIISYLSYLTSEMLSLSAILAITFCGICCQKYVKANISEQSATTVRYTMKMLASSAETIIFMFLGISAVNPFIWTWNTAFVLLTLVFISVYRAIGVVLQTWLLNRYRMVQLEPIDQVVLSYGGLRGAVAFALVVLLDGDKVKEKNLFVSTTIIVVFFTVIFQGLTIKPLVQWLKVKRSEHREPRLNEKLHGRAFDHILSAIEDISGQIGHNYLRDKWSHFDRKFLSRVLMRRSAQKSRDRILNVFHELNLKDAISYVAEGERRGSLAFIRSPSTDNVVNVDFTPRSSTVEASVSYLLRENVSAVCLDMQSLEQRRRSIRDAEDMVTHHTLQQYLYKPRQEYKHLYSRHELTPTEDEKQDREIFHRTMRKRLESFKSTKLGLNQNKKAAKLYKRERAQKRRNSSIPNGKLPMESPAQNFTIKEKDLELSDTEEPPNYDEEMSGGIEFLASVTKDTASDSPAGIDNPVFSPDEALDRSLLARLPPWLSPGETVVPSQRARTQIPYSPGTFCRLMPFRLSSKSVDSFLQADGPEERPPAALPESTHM
Assay: Recovery of intracellular pH (pHi) after acidification in LAP1 cells stably expressing NHE3 (BCECF fluorescence, FLIPR)
Type: cell-based
Conditions: LAP1 cells stably expressing NHE3; pH recovery after acidification; range 1 is % inhibition at 10 μM; read-out: Activity range (inhibitory effect on NHE3)

SMILES: CC1(C)OC(=O)N(c2ccc(Cl)c(O[C@H]3c4cc(Cl)cc(F)c4C[C@@H]3N3CC[C@@H](O)C3)c2)C1=O [Example 437, 3-{4-chloro-3-[(1S,2S)-6-chloro-4-fluoro-2-((R)-3-hydroxypyrrolidin-1-yl)indan-1-yloxy]phenyl}-5,5-dimethyloxazolidine-2,4-dione]
- IC50: 1000 to 10000 nM

SMILES: Cc1nnc(C)n1-c1ccc(O[C@H]2c3cc(Cl)cc(Cl)c3C[C@@H]2N2CC[C@H](N)C2)cc1 [Example 207, (S)-1-{trans-(1S,2S)-4,6-dichloro-1-[4-(3,5-dimethyl-[1,2,4]triazol-4-yl)phenoxy]indan-2-yl}pyrrolidin-3-ylamine]
- IC50: < 1000 nM

SMILES: NS(=O)(=O)c1ccc(O[C@H]2c3ccccc3C[C@@H]2CN2CCOCC2)c(F)c1 (racemic) [Example 449, 3-fluoro-4-(2-morpholin-4-ylmethylindan-1-yloxy)benzenesulfonamide]
- inhibition at 10 µM: 20 to 50%

SMILES: NC1CCN([C@@H]2Cc3ccccc3[C@H]2Oc2cccc(N3CCNCC3)c2)C1 (mixture of isomers) [Example 270, 1-[rac-trans-(1,2)-1-(3-piperazin-1-ylphenoxy)indan-2-yl]pyrrolidin-3-ylamine]
- IC50: 1000 to 10000 nM

SMILES: N[C@@H]1CCCN([C@@H]2Cc3ccccc3[C@H]2Oc2ccncc2)C1 (racemic) [Example 86, (R)-1-[rac-trans-(1,2)-1-(pyridin-4-yloxy)indan-2-yl]piperidin-3-ylamine]
- IC50: 1000 to 10000 nM

SMILES: CC1(C)NC(=O)N(c2ccc(Cl)c(O[C@H]3c4cc(Cl)cc(F)c4C[C@@H]3N3CC[C@@H](O)C3)c2)C1=O [Example 436, 3-{4-chloro-3-[(1S,2S)-6-chloro-4-fluoro-2-((R)-3-hydroxypyrrolidin-1-yl)indan-1-yloxy]phenyl}-5,5-dimethylimidazolidine-2,4-dione]
- IC50: 1000 to 10000 nM

SMILES: Cc1nnc(C)n1-c1ccc(O[C@H]2c3cc(Cl)cc(F)c3C[C@@H]2NC2CCCC2)c(F)c1 [Example 749, {trans-(1S,2S)-6-Chloro-1-[4-(3,5-dimethyl-[1,2,4]triazol-4-yl)-2-fluoro-phenoxy]-4-fluoro-indan-2-yl}-cyclopentyl-amine]
- IC50: 1000 to 10000 nM

SMILES: N#CCc1cccc(O[C@H]2c3ccccc3CC[C@@H]2N2CCC[C@@H](N)C2)c1 (racemic) [Example 230, {3-[rac-trans-(1,2)-2-((R)-3-aminopiperidin-1-yl)-1,2,3,4-tetrahydronaphthalen-1-yloxy]phenyl}acetonitrile]
- inhibition at 10 µM: 20 to 50%

SMILES: Cc1nnc(C)n1-c1ccc(O[C@H]2c3cc(Cl)cc(Cl)c3C[C@@H]2N2CCOCC2)c(F)c1 [Example 564, 4-{trans-(1S,2S)-4,6-dichloro-1-[4-(3,5-dimethyl-[1,2,4]triazol-4-yl)-2-fluorophenoxy]indan-2-yl}morpholine]
- IC50: < 1000 nM

SMILES: CS(=O)(=O)c1ccc(O[C@H]2c3ccccc3C[C@@H]2N2CCn3cnnc3C2)cc1 (racemic) [Example 590, 7-[rac-trans-(1,2)-1-(4-methanesulfonylphenoxy)indan-2-yl]-5,6,7,8-tetrahydro-[1,2,4]triazolo[4,3-a]pyrazine]
- inhibition at 10 µM: 20 to 50%

SMILES: Cn1ccn(-c2ccc(O[C@H]3c4cc(Cl)cc(F)c4C[C@@H]3NC3CCCC3)c(F)c2)c1=O [Example 755, 1-[4-(trans-(1S,2S)-6-Chloro-2-cyclopentylamino-4-fluoro-indan-1-yloxy)-3-fluoro-phenyl]-3-methyl-1,3-dihydro-imidazol-2-one]
- IC50: 1000 to 10000 nM

SMILES: N#Cc1cc(Cl)ccc1O[C@H]1c2ccccc2CC[C@@H]1N1CCC[C@@H](N)C1 (racemic) [Example 366, 2-[rac-trans-(1,2)-2-((R)-3-aminopiperidin-1-yl)-1,2,3,4-tetrahydronaphthalen-1-yloxy]-5-chlorobenzonitrile]
- inhibition at 10 µM: 20 to 50%

SMILES: NS(=O)(=O)c1ccc(O[C@H]2c3cc(Cl)cc(Cl)c3C[C@@H]2N2CC[C@@H](O)C2)c(F)c1 [Example 741, 4-[trans-(1S,2S)-4,6-Dichloro-2-((R)-3-hydroxy-pyrrolidin-1-yl)-indan-1-yloxy]-3-fluoro-benzenesulfonamide]
- IC50: < 1000 nM

SMILES: N[C@@H]1CCCN([C@H]2Cc3c(Cl)cc(Cl)cc3[C@@H]2Oc2ccc(F)cc2-c2cc[nH]n2)C1 [Example 113, (R)-1-{(1S,2S)-4,6-dichloro-1-[4-fluoro-2-(1H-pyrazol-3-yl)phenoxy]indan-2-yl}piperidin-3-ylamine]
- IC50: < 1000 nM

SMILES: O=C1COCC(=O)N1c1ccc(O[C@H]2c3cc(Cl)cc(Cl)c3C[C@@H]2N2CC[C@@H](O)C2)c(F)c1 [Example 560, 4-{4-[(1S,2S)-4,6-dichloro-2-((R)-3-hydroxypyrrolidin-1-yl)indan-1-yloxy]-3-fluorophenyl}morpholine-3,5-dione]
- IC50: < 1000 nM

SMILES: Cc1cc(O[C@H]2c3cc(Cl)cc(F)c3C[C@@H]2N2CCCC2)ccc1S(C)(=O)=O (racemic) [Example 291, 1-[rac-trans-(1,2)-6-chloro-4-fluoro-1-(4-methanesulfonyl-3-methylphenoxy)indan-2-yl]pyrrolidine]
- IC50: 1000 to 10000 nM

SMILES: CO[C@@H]1CCN(C2Cc3ccccc3C2Oc2cccc(NC(C)=O)c2)C1 (mixture of isomers) [Example 682, N-{3-[rac-trans-(1,2)-2-((R)-3-methoxypyrrolidin-1-yl)indan-1-yloxy]phenyl}acetamide]
- IC50: 1000 to 10000 nM

SMILES: NCC1CCN([C@@H]2Cc3ccccc3[C@H]2Oc2ccc3[nH]cc(CC(N)=O)c3c2)C1 (mixture of isomers) [Example 386, 2-{5-[rac-trans-(1,2)-2-(3-aminomethylpyrrolidin-1-yl)indan-1-yloxy]-1H-indol-3-yl}acetamide]
- IC50: 1000 to 10000 nM

SMILES: Cc1nnc(C)n1-c1ccc(O[C@H]2c3cc(F)cc(F)c3C[C@@H]2N2CC[C@@H](O)C2)c(F)c1 [Example 110, (R)-1-{(1S,2S)-1-[4-(3,5-dimethyl-[1,2,4]triazol-4-yl)-2-fluorophenoxy]-4,6-difluoroindan-2-yl}pyrrolidin-3-ol]
- IC50: < 1000 nM

SMILES: CN1CC(=O)N(c2ccc(Cl)c(O[C@H]3c4cc(Cl)cc(Cl)c4C[C@@H]3N3CC[C@@H](O)C3)c2)C1=O [Example 430, 3-{4-chloro-3-[(1S,2S)-4,6-dichloro-2-((R)-3-hydroxypyrrolidin-1-yl)indan-1-yloxy]phenyl}-1-methylimidazolidine-2,4-dione]
- IC50: < 1000 nM

SMILES: Cc1nnc(C)n1-c1ccc(O[C@H]2c3cc(Cl)ccc3C[C@@H]2N2CCCC2)c(Cl)c1 [Example 492, 4-[3-chloro-4-(trans-(1S,2S)-6-chloro-2-pyrrolidin-1-ylindan-1-yloxy)phenyl]-3,5-dimethyl-4H-[1,2,4]triazole]
- IC50: < 1000 nM

SMILES: N[C@@H]1CCCN([C@@H]2Cc3ccccc3[C@H]2Oc2ccc(Cl)nc2)C1 (racemic) [Example 82, (R)-1-[rac-trans-(1,2)-1-(6-chloropyridin-3-yloxy)indan-2-yl]piperidin-3-ylamine]
- IC50: 1000 to 10000 nM

SMILES: O=c1[nH]ccn1-c1ccc(O[C@H]2c3cc(Cl)cc(Cl)c3C[C@@H]2N2CC[C@@H](O)C2)c(F)c1 [Example 323, 1-{4-[(1S,2S)-4,6-dichloro-2-((R)-3-hydroxypyrrolidin-1-yl)indan-1-yloxy]-3-fluorophenyl}-1,3-dihydroimidazol-2-one]
- IC50: < 1000 nM

SMILES: CS(=O)(=O)c1ccc(O[C@@H]2c3ccccc3C[C@H]2NCC2CC2)cc1 (racemic) [Example 624, Cyclopropylmethyl-[1-(4-methanesulfonylphenoxy)indan-2-yl]amine]
- IC50: 1000 to 10000 nM

SMILES: NCC1CCN([C@@H]2Cc3ccccc3[C@H]2Oc2ccc(F)cc2F)C1 (mixture of isomers) [Example 602, C-{1-[rac-trans-(1,2)-1-(2,4-difluorophenoxy)indan-2-yl]pyrrolidin-3-yl}methylamine]
- IC50: 1000 to 10000 nM

SMILES: Cc1ccc(O[C@H]2c3ccccc3C[C@@H]2N2CCCC2)c(-c2c(C)noc2C)c1 [Example 408, 3,5-dimethyl-4-[5-methyl-2-(trans-(1S,2S)-2-pyrrolidin-1-ylindan-1-yloxy)phenyl]isoxazole]
- inhibition at 10 µM: 20 to 50%

SMILES: CC(=O)Nc1cccc(O[C@H]2c3cc(Cl)cc(Cl)c3C[C@@H]2N2CCC[C@@H](N(C)C)C2)c1 [Example 694, N-{3-[trans-(1S,2S)-4,6-dichloro-2-((R)-3-dimethylaminopiperidin-1-yl)indan-1-yloxy]phenyl}acetamide]
- IC50: < 1000 nM

SMILES: CCOc1cccc(O[C@@H]2c3ccccc3C[C@H]2N2CCC(CN)CC2)c1 (racemic) [Example 614, C-{1-[rac-trans-(1,2)-1-(3-ethoxyphenoxy)indan-2-yl]piperidin-4-yl}methylamine]
- IC50: 1000 to 10000 nM

SMILES: NC(=O)c1ccc(O[C@@H]2c3ccccc3C[C@H]2N2CCC[C@@H](N)C2)cc1 (racemic) [Example 525, 4-[rac-trans-(1,2)-2-((R)-3-aminopiperidin-1-yl)indan-1-yloxy]benzamide]
- IC50: 1000 to 10000 nM

SMILES: CC(=O)Nc1cccc(O[C@H]2c3cc(Cl)cc(Cl)c3C[C@@H]2N2CCCNCC2)c1 (racemic) [Example 644, N-[3-(rac-trans-(1,2)-4,6-dichloro-2-[1,4]diazepan-1-ylindan-1-yloxy)phenyl]acetamide]
- IC50: < 1000 nM
